The test system of data set [1] is house flies, Musca domestica. As to the kind of experiment: insecticidal activity against house flies (topical, 24 h mortality). The format is in vivo. Conditions: for LD50: Musca domestica, read-out: House flies LD50. How it is done: Representative carbamate esters of the invention were tested for insecticidal activity against house flies, Musca domestica. Stock 1% concentrated solutions of each of the test compounds were made in acetone, and such solutions diluted with acetone to a concentration of 0.001-0.1%. House flies were treated topically on the notum by 1 μl of each of the diluted acetone solutions and percent mortality was counted 24 hours after application. The insects were held at a constant temperature of 60° F. Results are given in μg/g.
(§1) In that table the term "LD50 " represents the dose needed to kill 50% of the test animals. In interpreting the values in Table 1 below, the lower the value for LD50 for house flies, the greater the insecticidal potency or toxicity of that particular compound. On the other hand, the higher the value of LD50 for mice, the lower the mammalian toxicity or the greater is the mammalian safety of such compound.

Data set [2] can be described thus: mammalian toxicity in mice (oral). Conditions: mouse, in vivo, corn oil carrier, Swiss white mice. How it is done: Mammalian toxicity was determined against Swiss white mice. The test compound was applied orally using corn oil as the carrier. Results are given as LD50 in mg of compound per kg body weight.
as §1

Data set [3] relates to house flies, Musca domestica. The note with it: 'is known to have', no unit printed beside the value; cited from earlier work.
Setting [4] is: topical on the notum, 1 μl acetone solution, 24 hours after application.

Data on 26 compounds can be found in patent US4410518A, “N-Phosphinoaminosulfinylcarbamate esters and their use as insecticides” (priority 1982, dated 1983).

Read-outs that look alike come from different tables or passages of the source.

Broadly, the LD50 is the dose expected to kill half of the subjects tested. Regarding `CCOP(=O)(OCC)N(C)[S+]([O-])N(C)C(=O)Oc1cccc2c1OC(C)(C)C2` (centres unmarked) [Example 7, 2,3-dihydro-2,2-dimethyl-7-benzofuranyl[[(diethoxyphosphinyl)methylamino]sulfinyl]methylcarbamate], the LD50 in data set [1] (topical, 24 h) came out at 19 mg/kg.

For `CCCCCCN([S+]([O-])N(C)C(=O)Oc1cccc2c1OC(C)(C)C2)P(=S)(OCC)OCC` (centres unmarked) [Example 3, 2,3-dihydro-2,2-dimethyl-7-benzofuranyl[[(diethoxyphosphinothioyl)hexylamino]sulfinyl]methylcarbamate], in data set [1] (setting [4]), the “House flies LD50” value was found to be 19 µg/g. This compound registered an LD50 in data set [2] of 140 mg/kg.

Consider `CCOP(=S)(OCC)N(CC)[S+]([O-])N(C)C(=O)ON=C(C)SC` (centres unmarked) [Example 12, methyl N-[[[[[(diethoxyphosphinothioyl)ethylamino]sulfinyl]methylamino]carbonyl]oxy]ethanimidothioate], for which, in data set [1] (setting [4]), the LD50 was 13 mg/kg.

As to `CCOP(=S)(OCC)N(C1CCCC1)[S+]([O-])N(C)C(=O)ON=C(C)SC` (centres unmarked) [Example 16, methyl N-[[[[[(diethoxyphosphinothioyl)cyclopentylamino]sulfinyl]methylamino]carbonyl]oxy]ethanimidothioate], in data set [1] (setting [4]), the 50% lethal dose (LD50) was 12 mg/kg.

Consider `CSC(=NOC(=O)N(C)[S+]([O-])N(C)P1(=S)OCC(C)(C)CO1)C(=O)N(C)C` (centres unmarked) [Example 25, methyl 2-(dimethylamino)-N-[[[[[(5,5-dimethyl-2-thioxo-1,3,2-dioxaphosphorinan-2-yl)(methyl)amino]sulfinyl]methylamino]carbonyl]oxy]-2-oxoethanimidothioate], for which the LD50 in data set [1] (setting [4]) was determined as 150 mg/kg; in data set [2], 25 mg/kg.

As for `CNC(=O)Oc1cccc2c1OC(C)(C)C2` [carbofuran, 2,3-dihydro-2,2-dimethyl-7-benzofuranyl methylcarbamate], the “LD50 for house flies (carbofuran, known)” value in data set [3] was “about 6.5”.

`CCCN([S+]([O-])N(C)C(=O)Oc1cccc2c1OC(C)(C)C2)P(=S)(OCC)OCC` (centres unmarked) [Example 2, 2,3-dihydro-2,2-dimethyl-7-benzofuranyl[[(diethoxyphosphinothioyl)propylamino]sulfinyl]methylcarbamate]: the figures for the median lethal dose (LD50) in data set [1] (setting [4]) and in data set [2] were 16 mg/kg and 60 mg/kg, respectively.

As to `CCN([S+]([O-])N(C)C(=O)ON=C(C)SC)P1(=S)OCC(C)(C)CO1` (centres unmarked) [Example 20, methyl N-[[[[[(5,5-dimethyl-2-thioxo-1,3,2-dioxaphosphorinan-2-yl)(ethyl)amino]sulfinyl]methylamino]carbonyl]oxy]ethanimidothioate], the LD50 in data set [1] (setting [4]) came to 120 mg/kg.

In the case of `CCCCCCN([S+]([O-])N(C)C(=O)Oc1cccc2c1OC(C)(C)C2)P1(=S)OCC(C)(C)CO1` (centres unmarked) [Example 6, 2,3-dihydro-2,2-dimethyl-7-benzofuranyl[[(5,5-dimethyl-2-thioxo-1,3,2-dioxaphosphorinan-2-yl)hexylamino]sulfinyl]methylcarbamate], the LD50 in data set [2] was determined as 105 mg/kg.

In the case of `CN(C(=O)Oc1cccc2c1OC(C)(C)C2)[S+]([O-])N(C)P1(=S)OCC(C)(C)CO1` (centres unmarked) [Example 5, 2,3-Dihydro-2,2-dimethyl-7-benzofuranyl[[(5,5-dimethyl-2-thioxo-1,3,2-dioxaphosphorinan-2-yl)methylamino]sulfinyl]methylcarbamate], the LD50 in data set [1] (setting [4]) worked out at 3 mg/kg; in data set [2], 70 mg/kg.

Consider `CCOP(=S)(OCC)N(C1CCCCC1)[S+]([O-])N(C)C(=O)ON=C(C)SC` (centres unmarked) [Example 18, methyl N-[[[[[(diethoxyphosphinothioyl)cyclohexylamino]sulfinyl]methylamino]carbonyl]oxy]ethanimidothioate], for which, in data set [1] (setting [4]), the median lethal dose (LD50) stood at 18 mg/kg.

For `CCN([S+]([O-])N(C)C(=O)ON=C(C)SC)P(=S)(OC)OC` (centres unmarked) [Example 10, methyl N-[[[[[(dimethoxyphosphinothioyl)ethylamino]sulfinyl]methylamino]carbonyl]oxy]ethanimidothioate], the LD50 in data set [1] (setting [4]) is 14 mg/kg.

Consider `CCOP(=S)(OCC)N(C)[S+]([O-])N(C)C(=O)ON=C(SC)C(=O)N(C)C` (centres unmarked) [Example 21, methyl 2-(dimethylamino)-N-[[[[[(diethoxyphosphinothioyl)methylamino]sulfinyl]methylamino]carbonyl]oxy]-2-oxoethanimidothioate], for which the median lethal dose (LD50) was 15 mg/kg in data set [1] (setting [4]) and 23 mg/kg in data set [2].

On to `CCOP(=S)(OCC)N(C(C)C)[S+]([O-])N(C)C(=O)ON=C(C)SC` (centres unmarked) [Example 14, methyl N-[[[[[(diethoxyphosphinothioyl)isopropylamino]sulfinyl]methylamino]carbonyl]oxy]ethanimidothioate], for which the LD50 in data set [1] (setting [4]) was found to be 11 mg/kg.

The compound `CCCN([S+]([O-])N(C)C(=O)Oc1cccc2c1OC(C)(C)C2)P(=O)(OCC)OCC` (centres unmarked) [Example 8, 2,3-dihydro-2,2-dimethyl-7-benzofuranyl[[(diethoxyphosphinyl)propylamino]sulfinyl]methylcarbamate] registered an LD50 in data set [2] of 100 mg/kg.

`CCOP(=S)(OCC)N(C)[S+]([O-])N(C)C(=O)Oc1cccc2c1OC(C)(C)C2` (centres unmarked) [Example 1, 2,3-dihydro-2,2-dimethyl-7-benzofuranyl[[(diethoxyphosphinothioyl)methylamino]sulfinyl]methylcarbamate]: the LD50 was determined as 14 mg/kg in data set [1] (setting [4]) and 65 mg/kg in data set [2].

Consider `CCCCCCN([S+]([O-])N(C)C(=O)ON=C(C)SC)P(=S)(OCC)OCC` (centres unmarked) [Example 17, Methyl N-[[[[[(diethoxyphosphinothioyl)hexylamino]sulfinyl]methylamino]carbonyl]oxy]ethanimidothioate], for which the LD50 in data set [1] (setting [4]) amounted to 23 mg/kg; in data set [2], 250 mg/kg.

In the case of `CCCN([S+]([O-])N(C)C(=O)ON=C(C)SC)P(=S)(OCC)OCC` (centres unmarked) [Example 13, methyl N-[[[[[(diethoxyphosphinothioyl)propylamino]sulfinyl]methylamino]carbonyl]oxy]ethanimidothioate], the LD50 worked out at 8 mg/kg in data set [1] (setting [4]) and 120 mg/kg in data set [2].

As for `CCOP(=S)(OCC)N(C(C)C)[S+]([O-])N(C)C(=O)ON=C(SC)C(=O)N(C)C` (centres unmarked) [Example 23, methyl 2-(dimethylamino)-N-[[[[[(diethoxyphosphinothioyl)isopropylamino]sulfinyl]methylamino]carbonyl]oxy]-2-oxoethanimidothioate], the values for the LD50 in data set [1] (setting [4]) and in data set [2] were 10 mg/kg and 22 mg/kg, respectively.

Regarding `CSC(C)=NOC(=O)N(C)[S+]([O-])N(C)P1(=S)OCC(C)(C)CO1` (centres unmarked) [Example 19, methyl N-[[[[[(5,5-dimethyl-2-thioxo-1,3,2-dioxaphosphorinan-2-yl)(methyl)amino]sulfinyl]methylamino]carbonyl]oxy]ethanimidothioate], the LD50 was found to be 58 mg/kg in data set [1] (setting [4]) and 200 mg/kg in data set [2].

Turning to `CCOP(=S)(OCC)N(C(C)CC)[S+]([O-])N(C)C(=O)ON=C(C)SC` (centres unmarked) [Example 15, methyl N-[[[[[(diethoxyphosphinothioyl)sec-butylamino]sulfinyl]methylamino]carbonyl]oxy]ethanimidothioate], in data set [1] (setting [4]), the median lethal dose (LD50) came out at 10 mg/kg.

Consider `CCOP(=S)(OCC)N(C)[S+]([O-])N(C)C(=O)ON=C(C)SC` (centres unmarked) [Example 11, methyl N-[[[[[(diethoxyphosphinothioyl)methylamino]sulfinyl]methylamino]carbonyl]oxy]ethanimidothioate], for which the values for the LD50 in data set [1] (setting [4]) and in data set [2] were 12 mg/kg and 130 mg/kg, respectively.

As to `COP(=S)(OC)N(C)[S+]([O-])N(C)C(=O)ON=C(C)SC` (centres unmarked) [Example 9, methyl N-[[[[[(dimethoxyphosphinothioyl)methylamino]sulfinyl]methylamino]carbonyl]oxy]ethanimidothioate], the LD50 in data set [1] (setting [4]) turned out to be 24 mg/kg; in data set [2], 120 mg/kg.

With `CCCCCCCCCCCCN([S+]([O-])N(C)C(=O)Oc1cccc2c1OC(C)(C)C2)P(=S)(OCC)OCC` (centres unmarked) [Example 4, 2,3-dihydro-2,2-dimethyl-7-benzofuranyl[[(diethoxyphosphinothioyl)dodecylamino]sulfinyl]methylcarbamate], in data set [2], the LD50 was above 1000 mg/kg.

For `CCOP(=S)(OCC)N(C1CCCC1)[S+]([O-])N(C)C(=O)ON=C(SC)C(=O)N(C)C` (centres unmarked) [Example 24, Methyl 2-(dimethylamino)-N-[[[[[(diethoxyphosphinothioyl)cyclopentylamino]sulfinyl]methylamino]carbonyl]oxy]-2-oxoethanimidothioate], the LD50 in data set [1] (setting [4]) was found to be 16 mg/kg.

With `CCOP(=S)(OCC)N(CC)[S+]([O-])N(C)C(=O)ON=C(SC)C(=O)N(C)C` (centres unmarked) [Example 22, methyl 2-(dimethylamino)-N-[[[[[(diethoxyphosphinothioyl)ethylamino]sulfinyl]methylamino]carbonyl]oxy]-2-oxoethanimidothioate], the LD50 in data set [1] (setting [4]) was determined as 18 mg/kg.
